# Test results published in patent US5648381A, “Derivatives of indan-1,3-dione and indan-1,2,3-trione, methods of preparing them and therapeutic use thereof” (Innothera, priority 1992, dated 1997).
# Key:
# saphena veins of rabbits = experiment: Contraction of isolated saphena veins produced by depolarisation (KCl, hyperpotassic solution); conditions: KCl 40 mM, compound 10 nM to 30 μM, rabbit; for EC50: Oryctolagus cuniculus, read-out: ED50 for increase in contractions of the saphena veins produced by KCl
# Procedure: (§1) In the in vitro test, the compounds were solubilised in aqueous solution, either pure or containing DMSO or alcohol.
# The contractile effect was measured in vitro:
# by the contractile force exerted by vascular rings, either quiescent or stimulated (electrically or by physiological agents) and maintained under isometric conditions, and
# The formula (A) compounds and their salts, if any, increase the contraction of animal saphena veins produced by noradrenalin and depolarisation (hyperpotassic solution) without in most cases affecting the arterial contractile responses. For example, 2-hydroxy-2-(2-methoxybenzoyl hydrazino)-indan-1,3-dione and the compound in Example 22 (10 nM to 30 μM) produce a more than 50% increase (ED50 ±0.3 microM) in contractions of the saphena veins of rabbits produced by KCl (40 mM).
# [1] = test system: basic venous tone of the rat; experiment: Basic venous tone and arterial pressure in vivo (normal and after cardiac arrest); conditions: 1 to 3 picomols intravenously
# Procedure: (§2) In the in vivo test, the products were administered intravenously in the form of a pure aqueous solution or intraperitoneally in the form of an aqueous solution optionally containing DMSO or orally in solution or in suspension in carboxymethyl cellulose or in a composite aqueous solution containing Tween® and DMSO in certain cases.
# In vivo, the arterial and venous pressure was measured under normal conditions and after cardiac arrest. During cardiac arrest, the venous tone was calculated from the venous and arterial pressure measured at equilibrium and corrected in dependence on the relative differences in compliance between these two networks (Samar and Coleman, Am. J. Physiol., 1978, 234:H94-100; Yamamoto et al., Am. J. Physiol., 1980, 238:H823-828).
# [2] = Free radical trapping (DPPH) effect; conditions: in vitro, DPPH model
# From the text: as §1
# The overall "free radical trapping" effect was studied in vitro in a model using 1,1-diphenyl-2-picrylhydrazyl (DPPH) as stable free radical, the method being derived from that described by Lamaison et al., Plantes Medic. et phytotheraphie, XXII, 1988, 231-234.
# [3] = Toxicity, single oral administration to the mouse; assay type: in vivo; conditions: 1 g/kg
# From the text: The formula (A) compounds and their salts if any have very low toxicity.
# [4] = test system: oedema and leucocyte migration in the pleural cavity; experiment: Carrageenin-induced pleurisy in the rat; assay type: in vivo; conditions: intraperitoneally twice 20 mg/kg, six hours after carrageenin
# Procedure: as §2
# The compounds in Examples 1, 3 and 11 and 2-hydroxy-2-(3-methoxybenzoyl hydrazino)-indan-1,3-dione reduce vascular permeability by 10 to 50% when measured one to two hours after intraperitoneal administration of 5-20 mg/kg and 2 to 4 hours after oral administration of 5-20 mg/kg to the rat. The compound in Example 9 and 2-isonicotinoyl hydrazonoindan-1,3-dione, administered intraperitoneally twice in doses of 20 mg/kg, inhibit oedema and leucocyte migration in the pleural cavity, six hours after injection of carrageenin in the model of pleurisy in the rat.
compound,measurement,setting,value
"COc1ccccc1C(=O)NNC1(O)C(=O)c2ccccc2C1=O [2-hydroxy-2-(2-methoxybenzoyl hydrazino)-indan-1,3-dione]",increase in contractions of the saphena veins produced by KCl,saphena veins of rabbits,more than 50%
same,EC50,saphena veins of rabbits,~300 nM
"COC(=O)NN=c1c(=O)c2ccccc2c1=O [Example 22, 2-methoxycarbonyl hydrazonoindan-1,3-dione]",increase in contractions of the saphena veins produced by KCl,saphena veins of rabbits,more than 50%
same,EC50,saphena veins of rabbits,~300 nM
"Cc1ccccc1C(=O)NNC1(O)C(=O)c2ccccc2C1=O [Example 6, 2-hydroxy-2-(2-methylbenzoylhydrazino)-indan-1,3-dione]",effect on arterial pressure,[1],without affecting the arterial pressure
same,increase in the basic venous tone,[1],more than 20%
"COc1ccc2c(=O)c(=NNc3cccc(F)c3)c(=O)c2c1 [2-(3-fluorophenyl hydrazono)-5-methoxyindan-1,3-dione]",maximum anti-radical effect,[2],more than 95%
"O=c1c(=NNc2ccccc2)c(=O)c2ccccc12 [2-phenyl hydrazonoindan-1,3-dione]",deaths,[3],no deaths
same,observed effects,[3]; in certain cases,coloured diarrhoea and coloured urine
"O=C(NNC1(O)C(=O)c2ccccc2C1=O)c1ccccc1 [Example 3, 2-benzoyl hydrazino-2-hydroxy-indan-1,3-dione]",increase in the basic venous tone,[1],more than 20%
"O=C(NN=c1c(=O)c2ccccc2c1=O)c1ccncc1 [2-isonicotinoyl hydrazonoindan-1,3-dione]",inhibition of leucocyte migration in the pleural cavity,[4],inhibit
same,inhibition of oedema,[4],inhibit
"COc1ccc(C(=O)NNC2(O)C(=O)c3ccccc3C2=O)cc1OC [Example 11, 2-(3,4-dimethoxybenzoylhydrazino)-2-hydroxyindan-1,3-dione]",effect on arterial pressure,[1],without affecting the arterial pressure
same,increase in the basic venous tone,[1],more than 20%
"O=C(NNC1(O)C(=O)c2ccccc2C1=O)c1ccccc1O [Example 9, 2-hydroxy-2-(2-hydroxybenzoylhydrazino)-indan-1,3-dione]",inhibition of leucocyte migration in the pleural cavity,[4],inhibit
same,inhibition of oedema,[4],inhibit
same,maximum anti-radical effect,[2],more than 95%
